# Reference: US8748412B2, “Phenylalanine derivatives and their use as non-peptide GLP-1 receptor modulators” (Argusina Bioscience Inc., priority 2011, dated 2014)
# Molecular target: T1, human GLP1R (Homo sapiens, UniProt P43220)
# T1 construct: expressed in transfected cells; host or cells: CHO cells (ATCC), transient transfection with pCMV-human GLP1R
# Assay: Human GLP-1 receptor transfected cell assay (MRE/CRE-luciferase reporter gene, agonist activity)
# Type: cell-based
# Details: 6 h; concentration 1 μM; read-out: Activity (agonist), percentage of the activity of the control
# How it was run: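 CHO cells transiently co-transfected with human GLP1R and MRE/CRE-driven luciferase reporter plasmids. Compound or GLP-1 (7-36 amide) standard dilution series added for 6 h at 37 °C, 5% CO2. Agonist activity read as Bright-Glo luciferase luminescence.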
# T1 sequence (P43220 24-463): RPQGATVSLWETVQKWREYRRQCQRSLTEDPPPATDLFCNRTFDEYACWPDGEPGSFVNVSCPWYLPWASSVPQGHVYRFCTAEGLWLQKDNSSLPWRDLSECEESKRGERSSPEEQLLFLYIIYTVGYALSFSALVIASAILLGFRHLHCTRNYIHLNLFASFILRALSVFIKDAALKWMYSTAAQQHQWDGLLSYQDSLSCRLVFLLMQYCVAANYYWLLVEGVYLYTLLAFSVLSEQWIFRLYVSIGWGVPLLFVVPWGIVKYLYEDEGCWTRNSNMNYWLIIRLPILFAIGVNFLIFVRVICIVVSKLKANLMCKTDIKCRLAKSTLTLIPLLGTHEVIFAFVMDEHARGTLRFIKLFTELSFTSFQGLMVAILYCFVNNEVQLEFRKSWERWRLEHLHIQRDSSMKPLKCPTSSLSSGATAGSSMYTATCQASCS
row,activation at 1 µM [%],SMILES
1,40 to 60,CC(C)(C)OC(=O)Nc1ccc(-c2nc(-c3ccc(C[C@@H](NC(=O)c4ccc(-c5ccc(C6CC6)cc5)o4)C(=O)O)cc3F)no2)cc1 [Compound 6G]
2,20 to 40,Cc1ccc(-c2cccc(C(=O)N[C@H](Cc3ccc(-c4noc(-c5ccc(NC(=O)OC(C)(C)C)cc5)n4)c(F)c3)C(=O)O)c2)cc1F [Compound 6L]
3,20 to 40,CC(C)Oc1ccc(-c2ccc(C(=O)N[C@H](Cc3ccc(-c4noc(-c5ccc(NC(=O)OC(C)(C)C)cc5)n4)c(F)c3)C(=O)O)o2)cc1F [Compound 6O]
4,40 to 60,CC(C)(C)OC(=O)Nc1ccc(-c2nc(-c3ccc(C[C@@H](NC(=O)c4cccc(-c5ccccc5F)c4)C(=O)O)cc3F)no2)cc1 [Compound 6P]
5,40 to 60,Cc1ccc(-c2ccc(C(=O)N[C@H](Cc3ccc(-c4noc(-c5ccc(NC(=O)OC(C)(C)C)cc5)n4)cn3)C(=O)O)o2)cc1 [Compound 6Q]
6,> 60,Cc1ccc(-c2ccc(C(=O)N[C@H](Cc3ccc(-c4noc(-c5ccc(NC(=O)OC(C)(C)C)cc5)n4)c(C)c3)C(=O)O)o2)cc1 [Compound 6R]
7,20 to 40,Cc1cc(C[C@@H](NC(=O)c2ccc(-c3ccc(Cl)cc3F)o2)C(=O)O)ccc1-c1noc(-c2ccc(NC(=O)OC(C)(C)C)cc2)n1 [Compound 6S]
8,20 to 40,CC(C)(C)OC(=O)Nc1ccc(-c2nc(-c3ccc(C[C@@H](NC(=O)c4cccc(C#CC5CC5)c4)C(=O)O)cc3F)no2)cc1 [Compound 6T]
9,20 to 40,CC(C)c1ccc(-c2ccc(C(=O)N[C@H](Cc3ccc(F)c(-c4noc(-c5ccc(NC(=O)OC(C)(C)C)cc5)n4)c3)C(=O)O)o2)cc1 [Compound 6V]

# Same assay, conditions: 6 h; concentration 3 μM; read-out: Activity (agonist), percentage of the activity of the control
row,activation at 3 µM [%],SMILES
1,20 to 40,CC(C)c1ccc(-c2cccc(C(=O)N[C@H](Cc3ccc(-c4noc(-c5ccc(NC(=O)OC(C)(C)C)cc5)n4)c(F)c3)C(=O)O)c2)cc1 [Compound 6D]
2,20 to 40,Cc1ccc(-c2cccc(C(=O)N[C@H](Cc3ccc(-c4noc(-c5ccc(NC(=O)OC(C)(C)C)cc5)n4)c(F)c3)C(=O)O)c2)o1 [Compound 6I]
3,40 to 60,CC(C)Oc1ccc(-c2ccc(C(=O)N[C@H](Cc3ccc(-c4noc(-c5ccc(NC(=O)OC(C)(C)C)cc5)n4)c(F)c3)C(=O)O)o2)cc1 [Compound 6N]
4,40 to 60,Cc1csc(-c2cccc(C(=O)N[C@H](Cc3ccc(-c4noc(-c5ccc(NC(=O)OC(C)(C)C)cc5)n4)c(F)c3)C(=O)O)c2)c1 [Compound 6U]
5,20 to 40,COc1ccc(C[C@@H](NC(=O)c2ccc(-c3ccc(C)cc3)o2)C(=O)O)cc1-c1noc(-c2ccc(NC(=O)OC(C)(C)C)cc2)n1 [Compound 6W]
6,40 to 60,Cc1ccc(-c2ccc(C(=O)N[C@H](Cc3cc(F)cc(-c4noc(-c5ccc(NC(=O)OC(C)(C)C)cc5)n4)c3)C(=O)O)o2)cc1 [Compound 6X]

# Same assay, conditions: 6 h; concentration 3.16 μM; read-out: Activity (agonist), percentage of the activity of the control
row,activation at 3.16 µM [%],SMILES
1,> 60,Cc1ccc(-c2ccc(C(=O)NC(Cc3ccc(F)c(C#Cc4ccc(NC(=O)OC(C)(C)C)cc4)c3)C(=O)O)o2)cc1 (stereo not drawn) [Compound 6E]
2,> 60,Cc1ccc(-c2cccc(C(=O)N[C@H](Cc3ccc(-c4noc(-c5ccc(NC(=O)OC(C)(C)C)cc5)n4)c(F)c3)C(=O)O)c2)cc1Cl [Compound 6H]

# Same assay, conditions: 6 h; concentration 10 μM; read-out: Activity (agonist), percentage of the activity of the control
row,activation at 10 µM [%],SMILES
1,> 60,CC(C)(C)OC(=O)Nc1ccc(-c2nc(-c3ccc(C[C@@H](NC(=O)c4cccc(-c5ccc(Cl)c(F)c5)c4)C(=O)O)cc3F)no2)cc1 [Compound 6F]
2,> 60,Cc1ccc(-c2cccc(C(=O)N[C@H](Cc3ccc(-c4noc(-c5ccc(NC(=O)OC(C)(C)C)cc5)n4)c(F)c3)C(=O)O)c2)s1 [Compound 6J]
3,> 60,CC(C)Oc1ccc(-c2cccc(C(=O)N[C@H](Cc3ccc(-c4noc(-c5ccc(NC(=O)OC(C)(C)C)cc5)n4)c(F)c3)C(=O)O)c2)cc1 [Compound 6K]
4,20 to 40,COc1ccc(C#CC(=O)N[C@H](Cc2ccc(-c3noc(-c4ccc(NC(=O)OC(C)(C)C)cc4)n3)c(F)c2)C(=O)O)cc1 [Compound 6M]
